Assay results published in ChEMBL document CHEMBL2331514, “Structure-based design and synthesis of novel pseudosaccharine derivatives as antiproliferative agents and kinase inhibitors” (Eur J Med Chem, 2013).

Legend:
[1] = test system: COLO 205; assay: Cytotoxicity against human COLO205 cells assessed as growth inhibition at 10 uM after 48 hrs by SRB assay; assay type: functional; conditions: COLO 205, 48 h, read-out: GI
[2] = test system: OVCAR-8; assay: Cytotoxicity against human OVCAR8 cells assessed as growth inhibition at 10 uM after 48 hrs by SRB assay; assay type: functional; conditions: OVCAR-8, 48 h, read-out: GI
[3] = test system: M14; assay: Cytotoxicity against human M14 cells assessed as growth inhibition at 10 uM after 48 hrs by SRB assay; assay type: functional; conditions: M14, 48 h, read-out: GI
[4] = test system: 786-0; assay: Cytotoxicity against human 786-0 cells assessed as growth inhibition at 10 uM after 48 hrs by SRB assay; assay type: functional; conditions: 786-0, 48 h, read-out: GI
[5] = test system: MOLT-4; assay: Cytotoxicity against human MOLT4 cells assessed as growth inhibition at 10 uM after 48 hrs by SRB assay; assay type: functional; conditions: MOLT-4, 48 h, read-out: GI
[6] = test system: T47D; assay: Cytotoxicity against human T47D cells assessed as growth inhibition at 10 uM after 48 hrs by SRB assay; assay type: functional; conditions: read-out: GI
[7] = test system: DU-145; assay: Cytotoxicity against human DU145 cells assessed as growth inhibition at 10 uM after 48 hrs by SRB assay; assay type: functional; conditions: DU-145, 48 h, read-out: GI
[8] = test system: CAKI-1; assay: Cytotoxicity against human Caki1 cells assessed as growth inhibition at 10 uM after 48 hrs by SRB assay; assay type: functional; conditions: CAKI-1, 48 h, read-out: GI
[9] = test system: ACHN; assay: Cytotoxicity against human ACHN cells assessed as growth inhibition at 10 uM after 48 hrs by SRB assay; assay type: functional; conditions: read-out: GI
[10] = test system: NCI-H226; assay: Cytotoxicity against human NCI-H226 cells assessed as growth inhibition at 10 uM after 48 hrs by SRB assay; assay type: functional; conditions: NCI-H226, 48 h, read-out: GI
[11] = test system: MCF7; assay: Cytotoxicity against human MCF7 cells assessed as growth inhibition at 10 uM after 48 hrs by SRB assay; assay type: functional; conditions: MCF7, 48 h, read-out: GI
[12] = test system: OVCAR-3; assay: Cytotoxicity against human OVCAR3 cells assessed as growth inhibition at 10 uM after 48 hrs by SRB assay; assay type: functional; conditions: OVCAR-3, 48 h, read-out: GI
[13] = Partition coefficient, log P of the compound; assay type: physicochemical; conditions: octanol/water
[14] = Cytotoxicity against human EKVX cells assessed as growth inhibition at 10 uM after 48 hrs by SRB assay; assay type: functional; conditions: read-out: GI
[15] = test system: HOP-62; assay: Cytotoxicity against human HOP62 cells assessed as growth inhibition at 10 uM after 48 hrs by SRB assay; assay type: functional; conditions: HOP-62, 48 h, read-out: GI
[16] = test system: UACC-257; assay: Cytotoxicity against human UACC257 cells assessed as growth inhibition at 10 uM after 48 hrs by SRB assay; assay type: functional; conditions: UACC-257, 48 h, read-out: GI
[17] = test system: UACC-62; assay: Cytotoxicity against human UACC62 cells assessed as growth inhibition at 10 uM after 48 hrs by SRB assay; assay type: functional; conditions: UACC-62, 48 h, read-out: GI
[18] = test system: HCT-116; assay: Cytotoxicity against human HCT116 cells assessed as growth inhibition at 10 uM after 48 hrs by SRB assay; assay type: functional; conditions: HCT-116, 48 h, read-out: GI
[19] = test system: LOX IMVI; assay: Cytotoxicity against human LOXIMVI cells assessed as growth inhibition at 10 uM after 48 hrs by SRB assay; assay type: functional; conditions: read-out: GI
[20] = test system: SK-MEL-28; assay: Cytotoxicity against human SK-MEL-28 cells assessed as growth inhibition at 10 uM after 48 hrs by SRB assay; assay type: functional; conditions: SK-MEL-28, 48 h, read-out: GI
[21] = test system: HCC 2998; assay: Cytotoxicity against human HCC2998 cells assessed as growth inhibition at 10 uM after 48 hrs by SRB assay; assay type: functional; conditions: HCC 2998, 48 h, read-out: GI
[22] = test system: UO-31; assay: Cytotoxicity against human UO31 cells assessed as growth inhibition at 10 uM after 48 hrs by SRB assay; assay type: functional; conditions: UO-31, 48 h, read-out: GI
[23] = Cytotoxicity against human NCI-ADR-RES cells assessed as growth inhibition at 10 uM after 48 hrs by SRB assay; assay type: functional; conditions: read-out: GI
[24] = test system: SF-539; assay: Cytotoxicity against human SF539 cells assessed as growth inhibition at 10 uM after 48 hrs by SRB assay; assay type: functional; conditions: SF-539, 48 h, read-out: GI
[25] = test system: IGROV-1; assay: Cytotoxicity against human IGROV1 cells assessed as growth inhibition at 10 uM after 48 hrs by SRB assay; assay type: functional; conditions: IGROV-1, 48 h, read-out: GI
[26] = test system: BT-549; assay: Cytotoxicity against human BT549 cells assessed as growth inhibition at 10 uM after 48 hrs by SRB assay; assay type: functional; conditions: BT-549, 48 h, read-out: GI
[27] = test system: HOP-92; assay: Cytotoxicity against human HOP92 cells assessed as growth inhibition at 10 uM after 48 hrs by SRB assay; assay type: functional; conditions: HOP-92, 48 h, read-out: GI
[28] = test system: RXF 393; assay: Cytotoxicity against human RXF393 cells assessed as growth inhibition at 10 uM after 48 hrs by SRB assay; assay type: functional; conditions: RXF 393, 48 h, read-out: GI
[29] = test system: Malme-3M; assay: Cytotoxicity against human MALME-3M cells assessed as growth inhibition at 10 uM after 48 hrs by SRB assay; assay type: functional; conditions: read-out: GI
[30] = test system: MDA-MB-435; assay: Cytotoxicity against human MDA-MB-435 cells assessed as growth inhibition at 10 uM after 48 hrs by SRB assay; assay type: functional; conditions: MDA-MB-435, 48 h, read-out: GI
[31] = test system: HCT-15; assay: Cytotoxicity against human HCT15 cells assessed as growth inhibition at 10 uM after 48 hrs by SRB assay; assay type: functional; conditions: HCT-15, 48 h, read-out: GI
[32] = test system: PC-3; assay: Cytotoxicity against human PC3 cells assessed as growth inhibition at 10 uM after 48 hrs by SRB assay; assay type: functional; conditions: PC-3, 48 h, read-out: GI
[33] = test system: MDA-MB-231; assay: Cytotoxicity against human MDA-MB-231 cells assessed as growth inhibition at 10 uM after 48 hrs by SRB assay; assay type: functional; conditions: MDA-MB-231, 48 h, read-out: GI
[34] = test system: HL-60(TB); assay: Cytotoxicity against human HL-60(TB) cells assessed as growth inhibition at 10 uM after 48 hrs by SRB assay; assay type: functional; conditions: HL-60, 48 h, read-out: GI
[35] = test system: SF-268; assay: Cytotoxicity against human SF268 cells assessed as growth inhibition at 10 uM after 48 hrs by SRB assay; assay type: functional; conditions: SF-268, 48 h, read-out: GI
[36] = test system: A498; assay: Cytotoxicity against human A498 cells assessed as growth inhibition at 10 uM after 48 hrs by SRB assay; assay type: functional; conditions: A498, 48 h, read-out: GI
[37] = test system: SK-MEL-5; assay: Cytotoxicity against human SK-MEL-5 cells assessed as growth inhibition at 10 uM after 48 hrs by SRB assay; assay type: functional; conditions: SK-MEL-5, 48 h, read-out: GI
[38] = test system: OVCAR-5; assay: Cytotoxicity against human OVCAR5 cells assessed as growth inhibition at 10 uM after 48 hrs by SRB assay; assay type: functional; conditions: OVCAR-5, 48 h, read-out: GI

SMILES | inhibition of growth at 10 µM [1] [%] | inhibition of growth at 10 µM [2] [%] | inhibition of growth at 10 µM [3] [%] | inhibition of growth at 10 µM [4] [%] | inhibition of growth at 10 µM [5] [%] | inhibition of growth at 10 µM [6] [%] | inhibition of growth at 10 µM [7] [%] | inhibition of growth at 10 µM [8] [%] | inhibition of growth at 10 µM [9] [%] | inhibition of growth at 10 µM [10] [%] | inhibition of growth at 10 µM [11] [%] | inhibition of growth at 10 µM [12] [%] | logP [13] | inhibition of growth at 10 µM [14] [%] | inhibition of growth at 10 µM [15] [%] | inhibition of growth at 10 µM [16] [%] | inhibition of growth at 10 µM [17] [%] | inhibition of growth at 10 µM [18] [%] | inhibition of growth at 10 µM [19] [%] | inhibition of growth at 10 µM [20] [%] | also measured
O=C(Nc1ccc(Cl)cc1)Nc1ccc2c(c1)C(Nc1ccc(Cl)cc1Cl)=NS2(=O)=O | 77 | 65 | 63 | 73 | 73 | 87 | 71 | 83 | 85 | 63 | 79 | 98 | 4.24 | 71 | 33 | 38 | 71 | 91 | 72 | 42 | inhibition of growth at 10 µM [21]: 72%; inhibition of growth at 10 µM [22]: 70%; inhibition of growth at 10 µM [23]: 79%; inhibition of growth at 10 µM [24]: 42%; inhibition of growth at 10 µM [25]: 54%; inhibition of growth at 10 µM [26]: 49%; inhibition of growth at 10 µM [27]: 82%; inhibition of growth at 10 µM [28]: 15%; inhibition of growth at 10 µM [29]: 58%; inhibition of growth at 10 µM [30]: 65%; inhibition of growth at 10 µM [31]: 76%; inhibition of growth at 10 µM [32]: 82%; inhibition of growth at 10 µM [33]: 43%; inhibition of growth at 10 µM [34]: 74%; inhibition of growth at 10 µM [35]: 40%; inhibition of growth at 10 µM [36]: 68%; inhibition of growth at 10 µM [37]: 51%; inhibition of growth at 10 µM [38]: 40%
Cc1ccc(NC2=NS(=O)(=O)c3ccc(NC(=O)CCC(=O)O)cc32)cc1 | -11 | -10 | -2 | 2 | -3 | 5 | -11 | 1 | -5 | 13 | 8 | -16 | 1 | -4 | -5 | -25 | 6 | -6 | 1 | -2 | inhibition of growth at 10 µM [21]: -4%; inhibition of growth at 10 µM [22]: 12%; inhibition of growth at 10 µM [23]: -3%; inhibition of growth at 10 µM [24]: 1%; inhibition of growth at 10 µM [25]: -12%; inhibition of growth at 10 µM [26]: -8%; inhibition of growth at 10 µM [27]: 9%; inhibition of growth at 10 µM [28]: -4%; inhibition of growth at 10 µM [29]: -1%; inhibition of growth at 10 µM [30]: 0%; inhibition of growth at 10 µM [31]: -13%; inhibition of growth at 10 µM [32]: -2%; inhibition of growth at 10 µM [33]: 6%; inhibition of growth at 10 µM [34]: 9%; inhibition of growth at 10 µM [35]: -10%; inhibition of growth at 10 µM [36]: -14%; inhibition of growth at 10 µM [37]: 5%; inhibition of growth at 10 µM [38]: 1%
COc1ccc(NC(=O)Nc2ccc(NC3=NS(=O)(=O)c4ccccc43)cc2)cc1 | -36 | -11 | -8 | 19 | 11 | 5 | 3 | -1 | -3 | -3 | 13 | -2 | 2.99 | 2 | -12 | -19 | -3 | 5 | 1 | -4 | inhibition of growth at 10 µM [21]: -3%; inhibition of growth at 10 µM [22]: 1%; inhibition of growth at 10 µM [23]: -6%; inhibition of growth at 10 µM [24]: 14%; inhibition of growth at 10 µM [25]: -6%; inhibition of growth at 10 µM [26]: 15%; inhibition of growth at 10 µM [27]: -13%; inhibition of growth at 10 µM [28]: -2%; inhibition of growth at 10 µM [29]: 6%; inhibition of growth at 10 µM [30]: 6%; inhibition of growth at 10 µM [31]: 3%; inhibition of growth at 10 µM [32]: -5%; inhibition of growth at 10 µM [33]: -13%; inhibition of growth at 10 µM [34]: 10%; inhibition of growth at 10 µM [35]: -1%; inhibition of growth at 10 µM [36]: 17%; inhibition of growth at 10 µM [37]: 14%; inhibition of growth at 10 µM [38]: -10%
O=C(Nc1ccccc1)Nc1ccc(OC2=NS(=O)(=O)c3ccccc32)cc1 | -9 | 5 | 42 | 26 | 32 | 23 | 18 | 25 | 12 | 20 | 17 | -9 | 2.89 | -3 | -11 | -1 | 21 | 10 | 49 | -2 | inhibition of growth at 10 µM [21]: 20%; inhibition of growth at 10 µM [22]: 13%; inhibition of growth at 10 µM [23]: 21%; inhibition of growth at 10 µM [24]: 21%; inhibition of growth at 10 µM [25]: -12%; inhibition of growth at 10 µM [26]: 12%; inhibition of growth at 10 µM [27]: 2%; inhibition of growth at 10 µM [28]: 5%; inhibition of growth at 10 µM [29]: 21%; inhibition of growth at 10 µM [30]: 15%; inhibition of growth at 10 µM [31]: 48%; inhibition of growth at 10 µM [32]: 11%; inhibition of growth at 10 µM [33]: 63%; inhibition of growth at 10 µM [34]: 23%; inhibition of growth at 10 µM [35]: 6%; inhibition of growth at 10 µM [36]: 17%; inhibition of growth at 10 µM [37]: 17%; inhibition of growth at 10 µM [38]: 13%
